Experimental data as given in article PMC9313812, “The Pseudo‐Natural Product Rhonin Targets RHOGDI” (Angewandte Chemie (International Ed. in English), 2022).

Target: T1, SMO (Mus musculus, UniProt P56726)
T1 construct: expressed in transfected cells; host or cells: HEK293T
Test: SMO binding assay (BODIPY-cyclopamine displacement)
Format: cell-based
Settings: HEK293T cells expressing SMO, 5 nM BODIPY-cyclopamine
Protocol: Supplementary Figure S2. […] HEK293T cells […]
ectopically expressing SMO were treated with different concentrations of 7a or Vismodegib and DMSO as controls in the presence of BODIPY-cyclopamine (5 nM) for 5 h. The graph […]
activated cell sorting analysis. Data are mean values of three independent experiments (n=3) ± […]
using a three-fold dilution series starting from a concentration of 30 μM. Half-maximal inhibitory concentrations (IC50) were calculated using the Quattro software suite (Quattro Research, Planegg, Germany) or GraphPad Prism 7 (GraphPad, USA).
The effect of test compounds on the viability of C3H/10T1/2 cells was determined by CellTiter-Glo Luminescence cell viability assay (Promega). Cells were treated as described for the osteogenesis assay prior to addition of the CellTiter-Glo® reagent according to manufacturer’s protocol. Compounds causing at least a 50% reduction in the osteogenesis assay and retaining cell viability of at least 80% were considered as hits. Dose-response analyses were performed for all hit compounds using a three-fold dilution series starting from a concentration of 30 μM. Half-maximal inhibitory concentrations (IC50) were calculated using the Quattro software suite (Quattro Research GmbH).
GLI-dependent reporter gene assay
Shh-LIGHT2 cells were seeded (2.5×10^4 per well) in 96-well plates. After incubation for 16 h, medium was replaced by low serum-containing medium (0.5% FCS) supplemented with 1.5 μM purmorphamine and various concentrations of the compounds or DMSO as a control and cells were incubated for 48 h. Firefly and Renilla luciferase activities were determined by means of the Dual-Luciferase® Reporter Assay System (Promega) according to the manufacturer’s protocol and luminescence was measured using the Spark plate reader (Tecan, […]
HEK293T cells were seeded (1.5×10^4 per well) on poly-D-lysine-coated coverslips placed in a 24-well plate. 24 h later cells were transfected with the SMO-expressing plasmid (pGEN-mSMO) using FuGENE HD (Promega) according to the manufacturer’s protocol. […]

T1 sequence (P56726 33-793): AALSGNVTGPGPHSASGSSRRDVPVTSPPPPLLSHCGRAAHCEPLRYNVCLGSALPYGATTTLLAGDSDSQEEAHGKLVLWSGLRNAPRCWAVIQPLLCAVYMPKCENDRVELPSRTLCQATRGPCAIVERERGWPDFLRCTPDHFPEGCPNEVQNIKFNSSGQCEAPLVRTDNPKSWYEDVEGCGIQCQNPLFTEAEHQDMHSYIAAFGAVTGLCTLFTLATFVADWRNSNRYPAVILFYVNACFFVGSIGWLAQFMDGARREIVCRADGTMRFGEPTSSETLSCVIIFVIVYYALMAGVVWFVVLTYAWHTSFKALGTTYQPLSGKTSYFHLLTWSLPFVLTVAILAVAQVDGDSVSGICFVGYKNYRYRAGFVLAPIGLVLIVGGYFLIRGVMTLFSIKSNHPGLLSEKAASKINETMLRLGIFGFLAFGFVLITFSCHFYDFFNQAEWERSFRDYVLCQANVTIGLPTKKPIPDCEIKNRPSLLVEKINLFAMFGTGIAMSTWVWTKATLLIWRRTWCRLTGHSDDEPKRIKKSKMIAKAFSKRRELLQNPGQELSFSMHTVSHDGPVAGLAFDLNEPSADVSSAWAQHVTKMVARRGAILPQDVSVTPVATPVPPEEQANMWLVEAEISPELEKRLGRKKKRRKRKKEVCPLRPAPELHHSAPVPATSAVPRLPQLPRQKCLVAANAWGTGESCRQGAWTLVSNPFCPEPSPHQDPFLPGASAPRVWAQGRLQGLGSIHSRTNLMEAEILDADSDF

SMILES	Displacement of BODIPY-cyclopamine from SMO (in words)	Displacement of BODIPY-cyclopamine from SMO (in words) (listed as 7 a)
COC(=O)C1(C(CC(=O)c2cccnc2)c2ccccc2)N=C(c2ccc(Br)cc2)C2C(=O)N(C)C(=O)C21 (stereo not drawn) [7l]	partial decrease	–
COC(=O)C1(C(CC(=O)c2ccccc2)c2ccccc2)N=C(c2ccc(Br)cc2)C2C(=O)N(C)C(=O)C21 (stereo not drawn) [7a]	does not displace	did not displace
